Test results as given in patent US7756643B2, “Method for determining the biological effect and/or activity of at least one drug, chemical substances and/or pharmaceutical composition based on their effect on the methylation status of DNA” (Epigenomics AG, priority 2001, dated 2010).
Where no end group is shown, it is not given here.

Experiments:
[1] = tested on: CpGs of the Fas-L gene; assay: Peptide library screening: methylation status of CpGs in a T-cell line; assay type: cell-based; settings: 10 days, versus untreated control
Method: A peptide library was prepared in a 96-well culture plate which contained overlapping peptide fragments derived from the peptide sequence of human serum albumine (HSA). As positive controls, each of vasoactive intestinal peptide (VIP) and pituitary adenylate cyclase-activating polypeptide (PACAP) was added in one of the wells.
A T-cell line (example?) was incubated together with the peptides and VIP or PACAP. After 10 days, the cells of the VIP/PACAP and HSA peptide treated as well as untreated control cell line cultures were collected by centrifugation and the chromosomal DNA was prepared using QIAamp DNA Mini Kit as recommended by the manufacturer (Quiagen, Hilden, Germany).
Subsequently, the chromosomal DNAs were bisulphite treated as published, for example, according to Olek et al. 6 different multiplex PCR reactions were performed on the 3 bisulphite DNA samples (untreated control, HSA and VIP/PACAP treated samples) using Cy5-labelled primer. The products of the methylation specific PCR reactions performed on the same DNA samples were combined. These complex mixtures of 64 PCR products derived from the three DNA samples were comparatively hybridised onto oligo micro arrays representing 256 CpG and the methylation statuses of the CpGs were analysed according to a method described in WO 99/28498.

[2] = tested on: T cells; settings: through down-regulation of Fas ligand (FasL); cited from earlier work

Substance | methylation status of CpGs of the Fas-L gene [1] | protection of T cells from activation-induced cell death [2]
pituitary adenylate cyclase-activating polypeptide (HSDGIFTDSYSRYRKQMAVKKYLAAVLGKRYKQRVKNK; ends and bridges not checked; UniProt P18509 132-169, looked up) [PACAP, positive control peptide] | significantly changed | protect T cells from activation-induced cell death
vasoactive intestinal peptide (HSDAVFTDNYTRLRKQMAVKKYLNSILN; ends and bridges not checked; UniProt P01282 125-152, looked up) [VIP, positive control peptide] | significantly changed | protect T cells from activation-induced cell death
